Article PMC9499324, “Glycyrrhizic Acid Derivatives Bearing Amino Acid Residues in the Carbohydrate Part as Dengue Virus E Protein Inhibitors: Synthesis and Antiviral Activity” (International Journal of Molecular Sciences, 2022)

Experiments:
DENV2 [1] = experiment: Time-of-addition/compound removal assay with DENV2 in Vero E6 cells; type: cell-based, Dengue virus type 2; settings: for IC50: Dengue virus, Vero C1008, attachment mode, 4 °C, DENV2, Vero E6 cells; for Stage of DENV2 replication affected (attachment, entry, post-entry modes): time-of-addition/removal, Vero E6 cells
Experimental: Figure 5 Time-of-addition and removal assay for analyzing antiviral action of compounds 3 (A), 6 (B), 11 (C), and 21 (D) in Vero E6 cells. In the attachment mode, cells were pre-cooled and incubated with fresh-prepared mixtures of active compounds with DENV2 at 4 °C for 1 h. After the removal of the mixtures, the cells were kept at 37 °C for 96 h (a cycle of viral replication) and then were performed by immunofluorescent assay plus DAPI staining. In entry and post-entry modes, cells were infected with DENV2 and treated with the compounds simultaneously (the entry stage) or 1-h post-infection (post-entry stage). After a 1 h incubation period, the virus/compound mixture was removed; the cell monolayer was washed with PBS and cultured for 96 h and then subjected to immunofluorescence staining and DAPI. Finally, the inhibition percentage of DENV2 infectivity was calculated as follows: 1-(percentage of NS4B positivity in treated cells/percentage of NS4B positivity in mock-treated cells). *** p < 0.001 compared with the other two antiviral action modes.
The time-of-addition assays consisted of three modes including attachment treatment/removal, entry-treatment/removal, and post-entry treatment/removal modes. In the attachment-treatment/removal mode, Vero E6 cells monolayer in 6-well plate was placed at 4 °C for 2 h and incubated with the fresh-prepared mixture of DENV-2 (MOI = 0.005) with the active compound at indicated concentrations for 2 h at 4 °C, and then washed with phosphate-buffered saline (PBS). In the entry-treatment/removal mode, Vero E6 cells were simultaneously treated with the active compound and infected DENV-2 (MOI = 0.005) in 6-well plates, incubated for 1 h at 37 °C, and then washed with PBS. In the post-entry treatment/removal mode, the cells were infected with DENV-2 for 1 h at 37 °C, treated with the active compounds at indicated concentrations for 1 h at 37 °C, respectively, and then washed by PBS. After active compound removal (washout), the cells were incubated at 37 °C for 96 h, and then were analyzed by immunofluorescent and DAPI staining assay for determining the residual DENV-2 infectivity, as described above. The inhibitory activity of the transient treatment by active compounds on attachment, entry, and post-entry stages of DENV replication in vitro was determined based on the residual infectivity.

DENV2 [2] = experiment: DENV2 yield reduction assay (TCID50) in Vero E6 cells; type: cell-based, Dengue virus type 2
Experimental: Ten-fold serial dilutions of the cultured media of treated/infected cells harvested in the antiviral potency assay were applied to a monolayer of Vero E6 cells in the 96-well plates. After 96-h incubation, the number of CPE in each well of the dilution was calculated, and the indicated dilution with a 50% positivity rate of CPE in the cell culture was expressed as the […] (50%) tissue culture infectious dose (TCID50).

[3] = MTT cytotoxicity assay in Vero E6 cells; type: cell-based; settings: African green monkey
Experimental: Vero E6 cells and A549 cells (5 × 10^3 cells/well) were treated with the serial dilution of GL conjugates at 0, 0.1, 10, 20, and 50 μM for examining the in vitro cytotoxicity of tested compounds. After 96-h incubation at 37 °C, the cells were incubated with MTT (3-(4,5-Dimethylthiazol-2-yl)-2,5-Diphenyltetrazolium Bromide) solution for another 4 h incubation, mixed with DMSO for 15 min after the removal of media, and then measured the absorbance at 570 nm. The viability (%) of treated cells was quantified according to the reduced ability of MTT. Finally, the concentration for reducing 50% cell viability (the 50% cytotoxic concentration, CC50) was determined by regression analysis of the concentration–response survival curve.

wild-type JEV SRIPs = experiment: Attachment assay with wild-type JEV SRIPs on Vero E6 cells; type: cell-based, Japanese encephalitis virus; settings: 4 °C for 1 h
Experimental: Figure 6 Attachment inhibition of chimeric DENV2 CprM-E/JEV and wild-type JEV SRIPs by active GL conjugates. Vero E6 cells were pre-cooled and incubated with freshly prepared mixtures of DENV2 CprM-E/JEV or wild-type JEV SRIPs, with active GL derivatives 3 (A), 6 (B), 11 (C), and 21 (D) at 4 °C for 1 h, respectively. After the removal of the mixtures, the cells were kept at 37 °C for 18 h and then an immunofluorescent assay with anti-JEV NS5 antibodies plus DAPI staining was performed. Finally, the inhibition percentage of SRIP attachment infectivity was measured as follows: 1-(percentage of JEV NS5 positivity in treated cells/percentage of JEV NS5 positivity in mock-treated cells). * p < 0.05; *** p < 0.001 compared with untreated, infected cells.
DNA-launched cytomegaloviruses (CMV) promoter-driven JEV and ZIKV replicons had been constructed, as described in our prior reports. […] After the removal of the mixture (the compound and SRIP), the cells were incubated at 37 °C for 18 h, and then were analyzed by immunofluorescent assay with anti-JEV NS3 and anti-ZIKV NS5 antibodies, respectively, plus DAPI staining for determining the residual infectivity of wild-type and chimeric SRIPs, as described above.

[4] = Dengue virus, DENV2, Vero C1008, 96 h, read-out: IC50 on the viral yield of DENV2, Vero E6 cells, TCID50 assay, 96 h

SMILES | IC50 (DENV2 [1]) | Stage of DENV2 replication affected (attachment, entry, post-entry modes) (DENV2 [1]) | IC50 (DENV2 [2]; [4]) | IC50 (DENV2 [2]; read-out: IC50 on the viral yield of DENV2, Vero E6 cells, TCID50 assay, 96 h) | CC50 at 96 h [3] | Attachment of wild-type JEV SRIPs onto Vero E6 cells (wild-type JEV SRIPs)
CCOC(=O)[C@H](Cc1ccccc1)NC(=O)[C@H]1O[C@@H](O[C@H]2[C@H](OC3CC[C@@]4(C)C(CC[C@]5(C)C4C(=O)C=C4C6C[C@@](C)(C(=O)O)CC[C@]6(C)CC[C@]45C)C3(C)C)O[C@H](C(=O)N[C@@H](Cc3ccccc3)C(=O)OCC)[C@@H](O)[C@@H]2O)[C@H](O)[C@@H](O)[C@@H]1O (stereo partly drawn) [Compound 11, 3-O-{2-O-[N-(β-D-Glucopyranosyluronoyl)-L-phenylalanineethyl ester]-N-(β-D-Glucopyranosyluronoyl)-L-phenylalanineethyl ester}-(3β, 20β)-11-oxo-30-noroleane-12-ene-30-oic Acid] | 180 nM | mostly affected the virus binding stage to the cell surface in the attachment mode | 200 nM | 170 nM | > 100000 nM | did not impede
COC(=O)[C@H](NC(=O)[C@H]1O[C@@H](O[C@H]2[C@H](OC3CC[C@@]4(C)C(CC[C@]5(C)C4C(=O)C=C4C6C[C@@](C)(C(=O)O)CC[C@]6(C)CC[C@]45C)C3(C)C)O[C@H](C(=O)N[C@@H](C(=O)OC)C(C)C)[C@@H](O)[C@@H]2O)[C@H](O)[C@@H](O)[C@@H]1O)C(C)C (stereo partly drawn) [Compound 3, 3-O-{2-O-[N-(β-D-Glucopyranosyluronoyl)-D-valinemethyl ester]-N-(β-D-glucopyranosyluronoyl)-D-valinemethyl ester}-(3β, 20β)-11-oxo-30-noroleane-12-ene-30-oic Acid] | 1860 nM | mostly affected the virus binding stage to the cell surface in the attachment mode | 500 nM |  | > 100000 nM | did not impede
